Laboratory results reported in patent US8019550B2, “Drug discovery method” (Keddem Bioscience Ltd., priority 2002, dated 2011).

Target: T1, HIV-1 Protease (Human immunodeficiency virus type 1 group M subtype B, UniProt P04585)
T1 construct: effect on HIV-1 Protease
Test: assay of selected molecules for activity (effect on HIV-1 Protease)
Format: biochemical
Settings: various concentrations (between 10 and 1000 micro-molar)
Description: A set of molecules including the triangle measures were selected and physically assayed and shown to have the expected binding to HIV-1 Protease.
The triplets were used as a query input for a search in MDL's ACD-SC (available chemical directory for screening).
All of molecules were actually assayed and appeared to show activity (effect on HIV-1 Protease) at various concentrations (between 10 and 1000 micro-molar). […] Also molecules 34-39 were assayed, with no activity shown, as expected.

SMILES | activity (effect on HIV-1 Protease)
O=C1C2C(c3ccccc3)NC(c3ccccc3)C1C(c1ccccc1)OC2c1ccccc1 (centres unmarked) [compound 7] | active
Cc1c(-c2ccccc2)c(=O)n(C)c2c1c(=O)n(-c1ccccc1)c(=O)n2-c1ccccc1 [compound 27] | active
